Assay results published in patent US20090131527A1, “NOVEL ANTHRANILIC ACID DERIVATIVES AND CHLORIDE CHANNEL BLOCKING AGENT CONTAINING THE SAME” (Korea Institute of Science and Technology, priority 2007, published 2009).

Biological target: Cl− channel activated by Ca2+ (calcium ion-activated chloride channels) (Xenopus laevis, UniProt B5SVV6)
Assay: Two-electrode voltage clamp recording of Ca2+-activated chloride current in Xenopus Laevis eggs (ionomycin/thapsigargin treated)
Format: cell-based
Conditions: for IC50: calcium ion-activated chloride channel current in Xenopus Laevis eggs, activated with 5 mM Ca2+, 15 s pretreatment with chemical; for inhibitory activity of calcium activated chloride channel current (in words): compared to the conventional anthranilic acid derivatives flufenamic acid and mefenamic acid / known inhibitors
Experimental: The prepared eggs were treated with 10 μM ionomycin (Sigma) for 30 min.
An intracellular solution was prepared by adding 0.5 mM EGTA and 1 μM Chelerythrine (Sigma) into a 1 M KCl solution, which was filled in glass microelectrodes. One of the above prepared eggs was placed on the chamber and two electrodes were inserted into opposite sides of the egg while the recording solution was poured. Current was measured by performing two-electrode voltage clamp recording according to a protocol suitable for the purpose of the experiment.
In order to activate a Ca^2+-dependent chloride channel, 5 mM Ca^2+ was treated first to the above eggs for 5 seconds. After being washed with the above recording solution for 50 seconds, and pretreated with the chemicals in the below Table 1 (treated in the order of […]) for 15 seconds, the eggs were treated with 5 mM Ca^2+ and the above chemicals (same amount as above) to measure the inhibitory concentrations of each chemical by comparing the current measured with 5 mM Ca^2+.

Sequence of Cl− channel activated by Ca2+ (calcium ion-activated chloride channels) (B5SVV6 entry or part of it): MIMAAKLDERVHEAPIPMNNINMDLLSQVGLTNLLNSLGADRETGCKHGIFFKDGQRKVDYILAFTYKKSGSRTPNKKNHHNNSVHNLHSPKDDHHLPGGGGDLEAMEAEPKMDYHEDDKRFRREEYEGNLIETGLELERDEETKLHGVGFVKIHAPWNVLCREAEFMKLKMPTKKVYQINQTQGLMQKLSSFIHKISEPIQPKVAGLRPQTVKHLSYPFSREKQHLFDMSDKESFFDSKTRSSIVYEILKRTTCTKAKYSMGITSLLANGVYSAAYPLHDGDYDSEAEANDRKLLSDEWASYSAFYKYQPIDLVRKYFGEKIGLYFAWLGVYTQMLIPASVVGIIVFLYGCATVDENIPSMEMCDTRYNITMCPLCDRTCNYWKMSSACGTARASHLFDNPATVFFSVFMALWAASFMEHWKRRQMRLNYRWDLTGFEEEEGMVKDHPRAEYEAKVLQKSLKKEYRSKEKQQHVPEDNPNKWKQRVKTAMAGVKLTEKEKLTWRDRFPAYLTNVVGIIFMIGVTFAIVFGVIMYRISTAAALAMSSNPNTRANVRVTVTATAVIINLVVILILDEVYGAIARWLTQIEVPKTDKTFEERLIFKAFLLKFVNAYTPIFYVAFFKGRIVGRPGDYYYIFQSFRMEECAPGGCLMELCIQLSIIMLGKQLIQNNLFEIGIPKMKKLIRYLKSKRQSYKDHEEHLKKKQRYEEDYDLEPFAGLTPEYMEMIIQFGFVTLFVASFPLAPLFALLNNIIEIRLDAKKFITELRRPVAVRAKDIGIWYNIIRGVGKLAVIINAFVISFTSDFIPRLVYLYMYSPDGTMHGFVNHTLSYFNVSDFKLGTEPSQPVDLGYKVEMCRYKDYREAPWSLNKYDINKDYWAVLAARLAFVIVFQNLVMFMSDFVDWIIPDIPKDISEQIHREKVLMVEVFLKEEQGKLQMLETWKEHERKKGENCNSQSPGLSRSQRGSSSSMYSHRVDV

Row | SMILES | IC50 | inhibitory activity of calcium activated chloride channel current (in words)
1 | O=C(O)c1cc([N+](=O)[O-])ccc1Nc1ccc([N+](=O)[O-])cc1 [5-Nitro-N-(4-nitrophenyl)anthranilic acid] | 15.4 µM | notably high inhibitory activity
2 | O=S(=O)(O)c1cc(N=C=S)ccc1C=Cc1ccc(N=C=S)cc1S(=O)(=O)O [DIDS, disodium 4,4′-diisothiocyano-2,2′-stilbenedisulphonic acid, reference compound] | 10.7 µM | –
3 | CC(C)(C)c1ccc(Nc2ccccc2C(=O)O)cc1 [N-(4-tert-Butylphenyl)anthranilic acid] | 22.9 µM | notably high inhibitory activity
4 | O=C(O)c1ccccc1Nc1cccc(C(F)(F)F)c1 [Flufenamic acid, reference compound] | 35.4 µM | –
5 | COc1ccc(Nc2ccccc2C(=O)O)cc1 [N-(4-Methoxyphenyl)anthranilic acid] | 102 µM | –
6 | O=C(O)c1ccccc1Nc1ccc(F)cc1 [N-(4-Fluorophenyl)anthranilic acid] | 63.1 µM | –
7 | Cc1cccc(Nc2ccccc2C(=O)O)c1C [Mefenamic acid, reference compound] | 44.5 µM | –
8 | O=C(O)c1ccccc1Nc1ccc(C(F)(F)F)cc1 [N-(4-Trifluoromethylphenyl)anthranilic acid] | 6 µM | notably high inhibitory activity
9 | O=C(O)c1ccccc1Nc1ccc(F)c(C(F)(F)F)c1 [N-(4-Fluoro-3-trifluoromethylphenyl)anthranilic acid] | 14.7 µM | notably high inhibitory activity
10 | CC(C)c1ccc(Nc2ccccc2C(=O)O)cc1 [N-(4-Isopropylphenyl)anthranilic acid] | 17 µM | –
11 | O=C(O)c1ccccc1Nc1ccccc1 [N-Phenylanthranilic acid, reference compound] | 88.1 µM | –
12 | O=C(O)c1cccnc1Nc1cccc(C(F)(F)F)c1 [Niflumic acid, reference compound] | 37.3 µM | –
13 | O=C(O)c1cc([N+](=O)[O-])ccc1NCCCc1ccccc1 [NPPB, 5-nitro-2-(3-phenylpropylamino)benzoic acid, reference compound] | 32.3 µM | –
14 | O=C(O)c1ccccc1Nc1ccccc1C(F)(F)F [N-(2-Trifluoromethylphenyl)anthranilic acid] | 29.5 µM | notably high inhibitory activity
15 | Cc1ccc(Nc2ccccc2C(=O)O)cc1 [N-(4-Methylphenyl)anthranilic acid] | 55.3 µM | –
16 | O=C(O)c1ccccc1Nc1cccc([N+](=O)[O-])c1 [N-(3-Nitrophenyl)anthranilic acid] | 32.1 µM | notably high inhibitory activity
17 | O=C(O)c1ccccc1Nc1ccc(Cl)cc1 [N-(4-Chlorophenyl)anthranilic acid] | 11.3 µM | notably high inhibitory activity
18 | O=C(O)c1c2ccccc2cc2ccccc12 [9-AC, 9-anthracene carboxylic acid, reference compound] | 94.3 µM | –
19 | O=C(O)c1ccccc1Nc1ccc([N+](=O)[O-])cc1 [N-(4-Nitrophenyl)anthranilic acid] | 17.8 µM | notably high inhibitory activity
